Structures are written as SMILES. Structures can show the parent of a compound that is named as a salt.

The experiment addresses PDE4. Briefly: In vitro enzyme assay: PDE4 inhibitory activity. It counts as biochemical. Particulars: PDE4 enzyme solution from U937 cells (originated from human monocyte), 3H-cAMP substrate, room temperature 30 minutes. As to the method:
U937 cells (originated from human monocyte) were cultured in PRMI 1640 medium containing 10% fetal bovine serum. The U937 cells were harvested and homogenized in 20 mM Tris-HCl buffer [pH 8.0, containing PMSF (1 mM), leupeptin (1 μg/ml) and pepstatin A (1 μg/ml)]. After centrifugation (at 15,000 rpm for 10 minutes), the supernatant was recovered and filtered through a 0.45 μm filter. The sample was applied to MonoQ (manufactured by Pharmacia, strong anion exchange resin) column and eluted by a density gradient of 0 to 0.8 M NaCl. Fractions from which the PDE activity was disappeared by 10 μM rolipram (a PDE4-selective inhibitor) were recovered and used as the enzyme solution for the measurement of PDE4 inhibitory activity.
The enzyme activity was measured by the following method. […] To an alumina column (100 μl), 50 μl of the supernatant was applied, eluted with 80 μl of 0.005 N hydrochloric acid, and radioactivity of the eluate was measured.
PDE4 inhibitory activity ratio of the compound of the present invention was calculated by the following equation: PDE4 inhibitory activity ratio (%)=(1−radioactivity in the presence of the compound of the present invention/radioactivity in the absence of the compound of the present invention)×100 […]

A word on the IC50: it is the concentration needed to halve the response being measured. High values mean lower potency, low ones higher potency. In the case of `COc1ccc(C2(C#N)CCN(CC(=O)NO)CC2)cc1OC1CCCC1` [Example 3, N-hydroxy-2-(4-(3-cyclopentyloxy-4-methoxyphenyl)-4-cyanopiperidin-1-yl)acetamide·hydrochloride], half-maximal inhibition (IC50) was put at 0.03 nM.

(Values after patent publication US7649095B2, “Piperidine derivatives and agent comprising the derivative as active ingredient” (Ono Pharmaceutical Co., Ltd., priority 2003, dated 2010).)
